From ChEMBL document CHEMBL1201862, “PubChem BioAssay data set” (2004)
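Protocol summary: plate cells (96-well), add compound at 5 concentrations, incubate 48 h, interpolate endpoints linearly. Here, GI50 denotes the concentration required for 50% inhibition of growth.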 Calls of active or inactive are those of the source. Cut-off read from the data, not from the text of the source: active = GI50 up to about 1.1 µM and inactive = higher.

Columns and labels:
Assay in all cases: growth of human tumour cells (NCI), 48 h
OVCAR-8 = system: OVCAR-8
UACC-257 = system: UACC-257
HOP-62 = system: HOP-62
IGROV-1 = system: IGROV-1
NCI-H23 = system: NCI-H23
SF-539 = system: SF-539
MOLT-4 = system: MOLT-4
A498 = system: A498
NCI-H226 = system: NCI-H226
Hs-578T = system: Hs-578T
MDA-MB-435 = system: MDA-MB-435
HT-29 = system: HT-29
OVCAR-5 = system: OVCAR-5
DU-145 = system: DU-145
T47D = system: T47D
NCI-H460 = system: NCI-H460
A549 = system: A549
SF-295 = system: SF-295
TK-10 = system: TK-10
SNB-75 = system: SNB-75

| SMILES | GI50 (OVCAR-8) | GI50 (UACC-257) | GI50 (HOP-62) | GI50 (IGROV-1) | GI50 (NCI-H23) | GI50 (SF-539) | GI50 (MOLT-4) | GI50 (A498) | GI50 (NCI-H226) | GI50 (Hs-578T) | GI50 (MDA-MB-435) | GI50 (HT-29) | GI50 (OVCAR-5) | GI50 (DU-145) | GI50 (T47D) | GI50 (NCI-H460) | GI50 (A549) | GI50 (SF-295) | GI50 (TK-10) | GI50 (SNB-75) |
| --- | --- | --- | --- | --- | --- | --- | --- | --- | --- | --- | --- | --- | --- | --- | --- | --- | --- | --- | --- | --- |
| CNC(=O)OC(C)CN1c2ccccc2Sc2ccccc21 (configuration not stated) | > 100 µM (inactive) | > 100 µM (inactive) | > 100 µM (inactive) | 59.3 µM (inactive) | > 100 µM (inactive) | 64.3 µM (inactive) | 19.1 µM (inactive) | > 100 µM (inactive) | > 100 µM (inactive) | > 100 µM (inactive) | 80.2 µM (inactive) | 80 µM (inactive) | > 100 µM (inactive) | > 100 µM (inactive) | > 100 µM (inactive) | 57.3 µM (inactive) | 86.3 µM (inactive) | 45.1 µM (inactive) | > 100 µM (inactive) | – |
| COc1cc(/C=N\N(C)C)cc(/C=N/N(C)C)c1O | – | 28.6 µM (inactive) | 39.3 µM (inactive) | – | > 100 µM (inactive) | 6.03 µM (inactive) | < 0.01 µM (active) | 45.6 µM (inactive) | 15.8 µM (inactive) | 3.53 µM (inactive) | 25.9 µM (inactive) | 10.6 µM (inactive) | – | 68.7 µM (inactive) | 1.98 µM (inactive) | 30.1 µM (inactive) | > 100 µM (inactive) | 2.9 µM (inactive) | 55.7 µM (inactive) | – |
| O=[N+]([O-])c1ccc([I+]c2ccccc2)cc1 | 5.41 µM (inactive) | 4.29 µM (inactive) | 11.6 µM (inactive) | 16.4 µM (inactive) | 2.33 µM (inactive) | 7.11 µM (inactive) | 2.25 µM (inactive) | 2.05 µM (inactive) | 9.08 µM (inactive) | 3.85 µM (inactive) | 8.2 µM (inactive) | 2.97 µM (inactive) | 7.98 µM (inactive) | 8.93 µM (inactive) | 6.52 µM (inactive) | 5.52 µM (inactive) | 6.64 µM (inactive) | 1.27 µM (inactive) | 8.91 µM (inactive) | – |
| OC(COC(c1ccccc1)(c1ccccc1)c1ccccc1)C(O)CC1SCCS1 (configuration not stated) | 19.3 µM (inactive) | 27 µM (inactive) | 12 µM (inactive) | 10.2 µM (inactive) | 17.9 µM (inactive) | 18.7 µM (inactive) | 8.91 µM (inactive) | 13.9 µM (inactive) | 14.9 µM (inactive) | 12.2 µM (inactive) | 26.2 µM (inactive) | 12.4 µM (inactive) | 19.2 µM (inactive) | 17.9 µM (inactive) | 14.1 µM (inactive) | – | – | – | 21 µM (inactive) | – |
| COc1cc(C2SCC(=O)N2c2ccc(-n3c(-c4ccccc4)nc4ccccc4c3=O)cc2)cc(OC)c1OC (configuration not stated) | > 100 µM (inactive) | > 100 µM (inactive) | > 100 µM (inactive) | > 100 µM (inactive) | > 100 µM (inactive) | > 100 µM (inactive) | 20.1 µM (inactive) | > 100 µM (inactive) | – | 20.1 µM (inactive) | > 100 µM (inactive) | > 100 µM (inactive) | > 100 µM (inactive) | > 100 µM (inactive) | 27.9 µM (inactive) | > 100 µM (inactive) | > 100 µM (inactive) | > 100 µM (inactive) | > 100 µM (inactive) | – |
| CN(C)/N=N/c1[nH]cnc1C(N)=O [DACARBAZINE] | 44.5 µM (inactive) | 49.8 µM (inactive) | 24.5 µM (inactive) | 68.5 µM (inactive) | 93.8 µM (inactive) | 65.6 µM (inactive) | 20.7 µM (inactive) | – | 75.2 µM (inactive) | 63 µM (inactive) | 84.5 µM (inactive) | 87.7 µM (inactive) | 81.5 µM (inactive) | 71.9 µM (inactive) | > 92.3 µM (inactive) | 49.5 µM (inactive) | 96.2 µM (inactive) | 55.1 µM (inactive) | 41.6 µM (inactive) | 35.7 µM (inactive) |
